# Measurements reported in patent US9951049B2, “Pyrazole linked benzimidazole conjugates and a process for preparation thereof” (Council of Scientific & Industrial Reseach, priority 2014, dated 2018).
# Legend:
# [1] = tested on: Renal cancer cell lines; assay: NCI SRB screen, Renal panel average; conditions: Homo sapiens, 48 h, read-out: Log10 GI50 (converted)
# [2] = tested on: Non-small-cell lung cancer cell lines; assay: NCI SRB screen, Non-small-cell lung panel average; conditions: Homo sapiens, 48 h, read-out: Log10 GI50 (converted)
# [3] = tested on: Melanoma cell lines; assay: NCI SRB screen, Melanoma panel average; conditions: Homo sapiens, 48 h, read-out: Log10 GI50 (converted)
# [4] = tested on: Breast Cancer cell lines; assay: NCI SRB screen, Breast Cancer panel average; conditions: Homo sapiens, 48 h, read-out: Log10 GI50 (converted)
# [5] = tested on: Colon cancer cell lines; assay: NCI SRB screen, Colon panel average; conditions: Homo sapiens, 48 h, read-out: Log10 GI50 (converted)
# [6] = tested on: CNS cancer cell lines; assay: NCI SRB screen, CNS panel average; conditions: Homo sapiens, 48 h, read-out: Log10 GI50 (converted)
# [7] = tested on: Prostate cancer cell lines; assay: NCI SRB screen, Prostate panel average; conditions: Homo sapiens, 48 h, read-out: Log10 GI50 (converted)
# [8] = tested on: Ovarian cancer cell lines; assay: NCI SRB screen, Ovarian panel average; conditions: Homo sapiens, 48 h, read-out: Log10 GI50 (converted)
# [9] = tested on: Leukemia cell lines; assay: NCI SRB screen, Leukemia panel average; conditions: Homo sapiens, 48 h, read-out: Log10 GI50 (converted)
# [10] = tested on: fifty six human tumor cell lines; assay: NCI human tumor cell line screen (48 h, SRB), all cell lines; conditions: various cell lines
smiles,measurement,setting,value
"COC(=O)Nc1nc2ccc(C(=O)c3cccs3)cc2[nH]1 [Nocodazole, reference compound]",GI50,[1],107 nM
same,GI50,[2],20.4 nM
same,GI50,[3],22.4 nM
same,GI50,[4],155 nM
same,GI50,[5],17.8 nM
same,GI50,[6],22.9 nM
same,GI50,[7],14.5 nM
same,GI50,[8],145 nM
same,GI50,[9],12.3 nM
"COc1ccc(-c2cc(-c3nc4cc(C(F)(F)F)ccc4[nH]3)[nH]n2)c(OC)c1 [11e, 2-(3-(2,4-dimethoxyphenyl)-1H-pyrazol-5-yl)-5-(trifluoromethyl)-1H-benzo[d]imidazole]",mean graph pattern: profile of activity and selectivity,[10],an interesting profile of activity and selectivity
"COc1ccc(-c2cc(-c3nc4cc([N+](=O)[O-])ccc4[nH]3)[nH]n2)c(OC)c1 [12e, 2-(3-(2,4-dimethoxyphenyl)-1H-pyrazol-5-yl)-5-nitro-1H-benzo[d]imidazole]",mean graph pattern: profile of activity and selectivity,[10],an interesting profile of activity and selectivity
"COc1ccc(-c2cc(-c3nc4cc(F)ccc4[nH]3)[nH]n2)c(OC)c1 [7e, 2-(3-(2,4-dimethoxyphenyl)-1H-pyrazol-5-yl)-5-fluoro-1H-benzo[d]imidazole]",mean graph pattern: profile of activity and selectivity,[10],an interesting profile of activity and selectivity
"COc1ccc(-c2cc(-c3nc4cc(Cl)c(Cl)cc4[nH]3)[nH]n2)c(OC)c1 [10e, 5,6-dichloro-2-(3-(2,4-dimethoxyphenyl)-1H-pyrazol-5-yl)-1H-benzo[d]imidazole]",mean graph pattern: profile of activity and selectivity,[10],an interesting profile of activity and selectivity
"COc1ccc(-c2cc(-c3nc4cc(Cl)c(F)cc4[nH]3)[nH]n2)c(OC)c1 [13e, 5-chloro-2-(3-(2,4-dimethoxyphenyl)-1H-pyrazol-5-yl)-6-fluoro-1H-benzo[d]imidazole]",mean graph pattern: profile of activity and selectivity,[10],an interesting profile of activity and selectivity
"COc1ccc(-c2cc(-c3nc4cc(Cl)ccc4[nH]3)[nH]n2)c(OC)c1 [8e, 5-chloro-2-(3-(2,4-dimethoxyphenyl)-1H-pyrazol-5-yl)-1H-benzo[d]imidazole]",mean graph pattern: profile of activity and selectivity,[10],an interesting profile of activity and selectivity
